# Data as given in publication PMC8003416, “Modulation of Human Phenylalanine Hydroxylase by 3-Hydroxyquinolin-2(1H)-One Derivatives” (Biomolecules, 2021).
# Assays:
# Format in all cases: biochemical
# [1] = molecular target: T1, human phenylalanine hydroxylase (hPAH) (Homo sapiens, UniProt P00439); assay: Time-dependent loss of hPAH activity at 42 °C; settings: 100 μM compound; for remaining activity at 100 µM: read-out: hPAH residual activity, % of control sample; for protective effect on hPAH activity over time: up to 120 min at 42 °C
# T1 construct: Recombinant full-length wild-type (WT) hPAH was expressed in E. coli Top10 cells in fusion with a hexa-histidyl peptide; made in house; host or cells: E. coli Top10
# T1 sequence (P00439 1-452): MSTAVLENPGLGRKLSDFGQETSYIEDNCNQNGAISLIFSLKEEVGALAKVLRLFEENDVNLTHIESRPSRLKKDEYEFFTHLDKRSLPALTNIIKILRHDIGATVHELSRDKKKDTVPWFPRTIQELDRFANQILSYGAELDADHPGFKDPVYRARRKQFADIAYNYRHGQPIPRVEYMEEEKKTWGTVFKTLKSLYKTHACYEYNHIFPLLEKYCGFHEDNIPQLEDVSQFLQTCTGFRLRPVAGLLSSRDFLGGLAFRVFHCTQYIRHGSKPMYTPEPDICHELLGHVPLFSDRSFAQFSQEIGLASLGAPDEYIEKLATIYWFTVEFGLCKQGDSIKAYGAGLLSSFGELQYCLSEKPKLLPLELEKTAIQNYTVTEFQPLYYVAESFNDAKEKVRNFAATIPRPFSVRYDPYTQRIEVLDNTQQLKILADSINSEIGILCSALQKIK
# Experimental: The hPAH time-dependent loss of activity at a fixed temperature was assessed in a period of 120 min, in the absence and presence of compounds. In these assays, the enzymatic reaction was performed essentially as described above for the Phe/3HQ-A condition. Compounds (100 μM) were pre-incubated with the enzyme at 42 °C. After a 30, 45, 60, 90 and 120 min period, an aliquot of the protein (5 μg) was incubated, at 37 °C, with 100 μM L-Phe for 4 min, and the reaction proceeded as above at 37 °C [19].
# trypsin = assay: Trypsin activity control with Z-Gly-Gly-Arg-AMC; settings: 100 μM compound; for relative (residual) trypsin activity: 1% DMSO control = 100%; for Trypsin Abs/min: control 512 ± 11
# Experimental: To rule out compounds that inhibit/inactivate trypsin, changes in the cleavage rate of N-(Benzyloxy)carbonyl-glycylglycylarginyl-7-amido-4-methylcoumarin (Z–Gly–Gly–Arg–AMC; Bachem, Bubendorf, Switzerland), a synthetic substrate of trypsin, were monitored by fluorimetric measurements in a microplate reader (FLUOstar Omega; BMGLabtech, Ortenberg, Germany). The assays (n = 3) were performed in a 96-well plate, in SEC buffer and in a final volume of 200 μL containing 1.5 μg/mL of trypsin, 50 μM of Z–Gly–Gly–Arg–AMC and 100 μM of 3HQs derivatives. Fluorescence was measured in real-time, with λexc 360 nm and λem 460 nm, during 30 min at 25 °C. Controls were performed using substrate alone with 1% DMSO (negative control) and trypsin with no compounds and 1% DMSO (positive control).
# [2] = molecular target: T1, human phenylalanine hydroxylase (hPAH); assay: hPAH enzymatic activity assay (NA, 3HQ-A and Phe/3HQ-A conditions); settings: 100 μM compound; for remaining activity at 100 µM: read-out: hPAH residual activity vs control
# Experimental: The hPAH activity was measured essentially as previously described. Briefly, the enzymatic reaction was performed in a 200 μL final volume, containing 250 mM Na-HEPES, pH 7, 0.1 mg/mL catalase (Sigma-Aldrich; St. Louis, MO, USA), 5 μg (final concentration of 0.112 μM of tetramer) of recombinant hPAH tetramers and 100 μM (NH4)2Fe(II)SO4. Using 100 μM L-Phe and 100 μM of tested compound, three experimental conditions were used to study the compounds’ modulatory effect, namely: non activated (NA), 3HQ-activated (3HQ-A) and substrate/3HQ-activated (Phe/3HQ-A) (Supplementary Figure S3). The reaction was started by addition of 75 μM BH4 (Schircks Laboratories; Bauma, Switzerland) prepared in 5 mM ascorbic acid. In the NA assay, the L-Phe substrate and tested compounds were added together with 75 µM BH4 at the start of the hydroxylation reaction. In the 3HQ-A condition, hPAH was pre-incubated with the tested compound for 4 min at 25 °C and the reaction was started by the addition of BH4 together with L-Phe. In the Phe/3HQ-A condition, hPAH was pre-incubated simultaneously with L-Phe and the tested compound (4 min, 25 °C). Appropriate control reactions were performed where the compounds were omitted and 1% DMSO was used. Kinetic parameters were determined using variable concentrations of L-Phe (25 to 2500 μM) and fixed concentrations of BH4 (75 μM) and tested compound (100 μM). After a 1-min incubation, the reaction was stopped, and the amount of L-Tyr produced was quantified by HPLC as previously described. The specific hPAH enzymatic activity is expressed as nmol of L-Tyr produced during 1 min per mg of protein (nmol L-Tyr.min^−1.mg^−1). The steady-state kinetic data were analyzed by nonlinear regression analysis using GraphPad Prism (La Jolla, CA, USA). Data was fitted to the modified Hill equation accounting for cooperative substrate binding as well as substrate inhibition (Equation (1)), to the modified Michaelis–Menten equation which accounts for substrate inhibition (Equation (2)) and to the non-modified Michaelis–Menten equation:v = (Vmax + Vi ([S]^x/Ki^x))/(1 + (K^h/[S]^h) + ([S]^x/Ki^x))(1) v = (Vmax [S])/(Km + [S](1 + [S]/Ki))(2)
SMILES,remaining activity at 100 µM ([1]; 60 min at 42 °C),remaining activity at 100 µM ([1]; 90 min at 42 °C),remaining activity at 100 µM ([1]; 120 min at 42 °C),relative (residual) trypsin activity (trypsin),Trypsin Abs/min (trypsin),fold activation by L-Phe (Phe/3HQ-A vs. 3HQ-A) ([2]; 100 μM L-Phe),remaining activity at 100 µM ([2]; NA (non-activated) condition),protective effect on hPAH activity over time [1],"remaining activity at 100 µM ([2]; 3HQ-A condition (4 min pre-incubation with compound, 25 °C))","hPAH activity, fold increase vs control ([2]; NA (non-activated) condition, 100 μM L-Phe, 1% DMSO control)",remaining activity at 100 µM ([2]; Phe/3HQ-A condition (pre-incubation with L-Phe and compound)),fold enzyme activation by compound (3HQ-A vs. NA) [2]
COC(=O)CC[C@H](NC(=O)c1c(O)c(=O)[nH]c2ccc(OC(F)(F)F)cc12)C(=O)OC [Compound 9],136 ± 7%,121 ± 32%,176 ± 32%,71%,362 ± 9 Abs/min,1.4 fold,58%,–,–,–,–,–
CCOC(=O)[C@H](Cc1ccccc1)NC(=O)c1c(O)c(=O)[nH]c2ccc(OC(F)(F)F)cc12 [Compound 3],–,–,–,79%,403 ± 12 Abs/min,1.3 fold,–,protective effect was not observed,69%,1.1 fold,57%,–
O=C(NCCc1ccccc1)c1c(O)c(=O)[nH]c2ccc(OC(F)(F)F)cc12 [Compound 8],–,–,–,62%,319 ± 7 Abs/min,1.7 fold,–,protective effect was not observed,–,–,–,–
COC(=O)CNC(=O)c1c(O)c(=O)[nH]c2ccc(OC(F)(F)F)cc12 [Compound 11],–,117 ± 33%,168 ± 64%,92%,470 ± 11 Abs/min,1.5 fold,–,–,–,–,–,1.6 fold
